The test system of the test is young adult male Sprague-Dawley rats. Put plainly: Novel Object Recognition Memory test (hippocampus-dependent nonspatial memory task). Type of test: in vivo, rat. The settings on record: for % Exploration of the novel object: prior to training, test 24 hours after training, n=6; for approximate optimum dosage in the Novel Object Recognition Memory test: from dose response data (FIGS. 1, 2, 4).

Counter-ions that a name gives are not always drawn.

Procedure: The general procedure for compound evaluation in Novel Object Recognition Memory (Hippocampus-Dependent Nonspatial Memory Task) is as follows: • 1. The animals are transported in their home cages from the vivarium to a dimly lit (5-6 lux) training room and acclimated for approximately 45 minutes. • 2. The animals are than individually placed in the training/testing environment (an opaque plastic chamber, 61 cm×42 cm×37 cm with bedding on the floor) for 5 minutes of habituation. Thereafter, the animals are returned to their home cage.
They remained in the testing room for approximately 15 minutes after the last animal is habituated before being returned to their colony room.
For the memory test, the objects to be discriminated are a goblet (11 cm in height, 6.5 cm in diameter) and a conical candlestick holder (11 cm in height, 6 cm in diameter) made of green, nontransparent glass. There are multiple copies of each object used for training and testing. Object pairs are randomly assigned within and between conditions. For training, two identical objects are placed 8 cm from the sides of the two short walls of the chamber. • 4. The day after initial habituation, the animals are returned to the testing room and acclimated as described in Step 1. Drug and/or vehicle is then administered according to experimental design (i.p.: 263/8-gauge needle; or p.o.: 18-gauge needle) at an interval ranging from 24 hours prior to 24 hours post-training. The training procedure is begun by placing the animal, nose facing the wall, into the empty chamber at a position in the center of a long wall. After 1 minute of re-habituation, the animal is removed from the chamber and placed in a holding cage (45 cm×26 cm×20 cm) with bedding for a period of 10 seconds. During this delay, the training objects are placed in the chamber. The animal is then returned to the chamber for a 15-minute period of exploration. The animal's movements are observed via cameral located over the chamber and are recorded on videotape. After the training session, the animal is returned to its home cage. The objects are cleaned with an 85% EtOH solution. The animals remain in the testing room for approximately 15 minutes after the last animal is trained before being returned to their colony room. • 5. Following a delay interval (1 hour to several weeks, but usually 24 hours), the animals are again returned to the testing room and acclimated as described in Step 1. After this, individual animals are re-habituated to the empty chamber for 1 minute as was described in Step 4. For the test, two new objects are placed in the chamber: one is identical to the objects used during training, while the other is novel. The position of the novel object is randomized for each animal. The animals are allowed to actively explore until they accumulate a total of 60 seconds of exploration. During the test period, the amount of time spent exploring either the novel or the familiar object is recorded using R. E. Clark's V.P.C. program, which also signals when 60 seconds of exploration has been accumulated. The animal's movements are observed via a camera located over the chamber and are recorded on videotape. Any animal that fails to explore either object or to reach the set criterion within 15 minutes is excluded from analysis. After the test, the animals are returned to their home cage, and then to the colony room. The objects are cleaned with an 85% EtOH solution. • 6.

Consider `COc1cc2c(cc1OC)C(=O)C(CC1CCN(Cc3ccccc3)CC1)C2` (racemic) [donepezil, (+/−) 2,3-dihydro-5,6-dimethoxy-2-[[1-(phenylmethyl)-4-piperidinyl]methyl]-IH-indene-1-one hydrochloride], for which the “approximate optimum dosage in the Novel Object Recognition Memory test” value (from here on “approximate optimum dosage”) is ~0.5 mg/kg. Besides, for the setting “donepezil 0.05 mg/kg i.p. alone (suboptimal dose) plus vehicle”, the “% Exploration of the novel object” value is on record as 50%. With `CC12CC3CC(C)(C1)CC(N)(C3)C2` [memantine], the “approximate optimum dosage” value is recorded as ~1.0 mg/kg. For `COCCOC(=O)C1=C(C)NC(C)=C(C(=O)OC(C)C)C1c1cccc(C#N)c1Cl` (single isomer, unassigned; (+)) [Compound A, (+) isopropyl 2-methoxyethyl 4-(2-chloro-3-cyano-phenyl)-1,4-dihydro-2,6-dimethylpyridine-3,5-dicarboxylate], the “approximate optimum dosage” value was ~10 mg/kg. Further, where the note is “Compound A 1.00 mg/kg i.p. alone (suboptimal dose) plus vehicle”, the “% Exploration of the novel object” value is recorded as 50%.
